For the series, the system named is senescent human IMR-90 fibroblast cells. Format: cell-based. The procedure: Human IMR-90, BJ, WI-38 fibroblasts and REC epithelial cells were obtained from ATCC and grown at 5% oxygen. IMR-90 and REC cells were maintained in DMEM medium comprising 100 units per ml of penicillin, […] of streptomycin and 10% fetal bovine serum. BJ and WI-38 cells were maintained in EMEM medium comprising 100 units per ml of penicillin, […] of streptomycin, 10% fetal bovine serum, 1% Pyruvate, 1% L-Glutamine, mLFs were isolated according to standard procedures [Seluanov, A., et al. J Vis Exp (2010) (44):2033] and grown at 5% oxygen. Cells were maintained in EMEM medium comprising 100 units per ml of penicillin, […] of streptomycin and 15% fetal bovine serum.
DNA damage induced senescence (DIS) was induced by etoposide treatment (E1383, Sigma) at a concentration of […] for IMR-90, BJ, and WI-38, 16 μM for mLF and 12.5 μM for REC for a duration of 48 hours. Cells acquired the senescence phenotype 7 days post treatment (determined by SA-beta-gal staining).
Oncogene Induced Senescence (OIS) was induced by means of retroviral infection with H-RasG12 (pLNCX2) at 5% oxygen. Retroviruses were packaged, and infections were performed as described below.
Replicative Induced Senescence (RIS) was induced by long-term passaging of the cells in tissue culture. Cells acquired the senescence phenotype after 40 population doublings.
Primary target cells (IMR-90, BJ, […]) were plated in 24-well plates at 100,000 cells per well. Cells were transfected with different concentrations of DNAzymes (as depicted in Table 2, below) using Lipofectamine™ 2000 (Invitrogen) according to manufacturer instructions. The percentage of survival was determined based on quantification of remaining adherent cells using PrestoBlue® reagent (A13262, Life Technologies Ltd.) relative to Lipofectamine™ only control and compared to Scramble DNAzyme (Dz_Scramble) [Scramble Arm (Scr A) sequence: ATCTTCCTFggctagctacaacgaCGCCTCTCC, SEQ ID NO: 5, or Scramble catalytic core (Scr B) sequence: AGGAGAACAacagtaactggcgacGGGATGAGG, SEQ ID NO: 86] treated cells, 3-6 days following transfection.
As for “1854 (DNA CCTGTGCCAGGCTAGCTACAACGACACATGGGA; chemistry not given here) [compound 1854]”, the Validated cytotoxicity entry was “+”.

“1013 (DNA TAATTCTAAGGCTAGCTACAACGAGCCAGAGGC; chemistry not given here) [compound 1013]”: the Validated cytotoxicity result was “+”.

For the substance “1683 (DNA AGAGGGTATCCGAGCCGGACGAGAAGGGAAA; chemistry not given here) [compound 1683]”, the Validated cytotoxicity entry was “+”.

With “1967 (DNA TGGGGTGGAGGCTAGCTACAACGAGAGGAAGGT; chemistry not given here) [compound 1967]”, the Validated cytotoxicity entry is given as “+”.

As for “1455 (DNA AGGGGGGTAGGCTAGCTACAACGACAAGAGCCA; chemistry not given here) [compound 1455]”, the Validated cytotoxicity entry is recorded as “+”.

Turning to “1872 (DNA TAACCCCATCCGAGCCGGACGACAAGGGGGC; chemistry not given here) [compound 1872]”, the Validated cytotoxicity entry is listed as “+”.

In the case of “1736 (DNA CCATTGAGTCCGAGCCGGACGAGGGGGTGGG; chemistry not given here) [compound 1736]”, the Validated cytotoxicity entry is reported as “+”.

As for “2266 (DNA AGAGGTTTAGGCTAGCTACAACGAAGTCTAGGT; chemistry not given here) [compound 2266]”, the Validated cytotoxicity result was “+”.

Take “1786 (DNA GAGGTAGAAGGCTAGCTACAACGATAGGGTGCC; chemistry not given here) [compound 1786]”: the Validated cytotoxicity entry is reported as “+”.

Regarding “75 (DNA CTCCTACCAGGCTAGCTACAACGACCCCTTCCT; chemistry not given here) [compound 75]”, the Validated cytotoxicity entry is recorded as “+”.

“364 (DNA TGACGGACAGGCTAGCTACAACGACCCCAGCCG; chemistry not given here) [compound 364]”: the Validated cytotoxicity result was “+”.

With “1838 (DNA GGACCCTCAGGCTAGCTACAACGACCCCACAGC; chemistry not given here) [compound 1838]”, the Validated cytotoxicity result was “+”.

Take “2200 (DNA AGGCCAGTAGGCTAGCTACAACGAGTTACAGGA; chemistry not given here) [compound 2200]”: the Validated cytotoxicity result is recorded as “+”.

On to “495 (DNA GAAGTTCCAGGCTAGCTACAACGACGCTCACGG; chemistry not given here) [compound 495]”, for which the Validated cytotoxicity result is “+”.

On to “1986 (DNA GCAATGAATCCGAGCCGGACGAGGGGAGGGA; chemistry not given here) [compound 1986]”, for which the Validated cytotoxicity entry is listed as “+”.

For the substance “1582 (DNA CAGGGGAGTCCGAGCCGGACGAAAAGAGGGA; chemistry not given here) [compound 1582]”, the Validated cytotoxicity entry is given as “+”.

On to “835 (DNA AGGGCTTCTCCGAGCCGGACGACTTGGAGAA; chemistry not given here) [compound 835]”, for which the Validated cytotoxicity result is recorded as “+”.

With “1641 (DNA AGAGGGGAAGGCTAGCTACAACGATGCAGAGCC; chemistry not given here) [compound 1641]”, the Validated cytotoxicity result is “+”.

With “1938 (DNA TTTGAGGGGGGCTAGCTACAACGACAGTGTCTC; chemistry not given here) [compound 1938]”, the Validated cytotoxicity entry was “+”.

On to “352 (DNA GTTCTGACAGGCTAGCTACAACGAGGCGCCTGA; chemistry not given here) [compound 352]”, for which the Validated cytotoxicity result is “+”.

With “857 (DNA GCAGGCTTTCCGAGCCGGACGATGTGGGCGG; chemistry not given here) [compound 857]”, the Validated cytotoxicity result is given as “+”.

“100 (DNA TCTGGGGTTCCGAGCCGGACGATTAGAGGTC; chemistry not given here) [compound 100]”: the Validated cytotoxicity entry was “+”.

Regarding “1976 (DNA GGGGAGGGAGGCTAGCTACAACGAGGGGTGGAT; chemistry not given here) [compound 1976]”, the Validated cytotoxicity result is recorded as “+”.

With “224 (DNA TGGGGAAATCCGAGCCGGACGAGGGGCTCAG; chemistry not given here) [compound 224]”, the Validated cytotoxicity entry was “+”.

Turning to “1742 (DNA TCCAGTCCAGGCTAGCTACAACGATGAGCTGGG; chemistry not given here) [compound 1742]”, the Validated cytotoxicity entry is given as “+”.

For “1791 (DNA TGCCTGAGGGGCTAGCTACAACGAAGAACTAGG; chemistry not given here) [compound 1791]”, the Validated cytotoxicity result is recorded as “+”.

Regarding “2215 (DNA GAGAGAAAAGGCTAGCTACAACGAAGTCCAGGC; chemistry not given here) [compound 2215]”, the Validated cytotoxicity entry is “+”.

Turning to “354 (DNA CGGTTCTGAGGCTAGCTACAACGAATGGCGCCT; chemistry not given here) [compound 354]”, the Validated cytotoxicity result was “+”.

Turning to “846 (DNA GTGGGCGGAGGCTAGCTACAACGATAGGGCTTC; chemistry not given here) [compound 846]”, the Validated cytotoxicity result is “+”.

As for “1252 (DNA GGGGGTGAAGGCTAGCTACAACGATTCATAACC; chemistry not given here) [compound 1252]”, the Validated cytotoxicity result is “+”.

Consider “442 (DNA AGTCGCGGTCCGAGCCGGACGACAGCTGCTC; chemistry not given here) [compound 442]”, for which the Validated cytotoxicity result is reported as “+”.

On to “1719 (DNA GGGGTGGGAGGCTAGCTACAACGAAGGCACCTC; chemistry not given here) [compound 1719]”, for which the Validated cytotoxicity result is “+”.

Turning to “1602 (DNA CTGGGGCTTCCGAGCCGGACGATCAAAAGGT; chemistry not given here) [compound 1602]”, the Validated cytotoxicity entry was “+”.

In the case of “1610 (DNA AAGGGTAGTCCGAGCCGGACGAGGGGCTCCT; chemistry not given here) [compound 1610]”, the Validated cytotoxicity result was “+”.

With “1417 (DNA GCTCAGCCTCCGAGCCGGACGAAGGCTGTGC; chemistry not given here) [compound 1417]”, the Validated cytotoxicity entry is “+”.

As to “1684 (DNA GAGAGGGTAGGCTAGCTACAACGATGAAGGGAA; chemistry not given here) [compound 1684]”, the Validated cytotoxicity entry is “+”.

For “16 (DNA CCTCTTCTAGGCTAGCTACAACGAGCCAGAGCT; chemistry not given here) [compound 16]”, the Validated cytotoxicity entry is listed as “+”.

On to “1089 (DNA TAAATAGTAGGCTAGCTACAACGATTCATAAAA; chemistry not given here) [compound 1089]”, for which the Validated cytotoxicity entry is on record as “+”.

“1591 (DNA CAAAAGGTAGGCTAGCTACAACGAAGGGGAGCC; chemistry not given here) [compound 1591]”: the Validated cytotoxicity entry is given as “+”.

For the substance “603 (DNA ATCCCGGCTCCGAGCCGGACGACGCCGGGGC; chemistry not given here) [compound 603]”, the Validated cytotoxicity result is on record as “+”.

With “111 (DNA CATCCTTTAGGCTAGCTACAACGATTCTGGGGT; chemistry not given here) [compound 111]”, the Validated cytotoxicity entry is reported as “+”.

Take “1873 (DNA ATAACCCCAGGCTAGCTACAACGATCAAGGGGG; chemistry not given here) [compound 1873]”: the Validated cytotoxicity result is reported as “+”.

“266 (DNA GTCTGTCTTCCGAGCCGGACGATGAATACTC; chemistry not given here) [compound 266]”: the Validated cytotoxicity result is listed as “+”.

Turning to “974 (DNA GGGTATGTAGGCTAGCTACAACGAATGAGGAGG; chemistry not given here) [compound 974]”, the Validated cytotoxicity result is reported as “+”.

As to “174 (DNA GCAAAGAAAGGCTAGCTACAACGAGACTATAGT; chemistry not given here) [compound 174]”, the Validated cytotoxicity result is on record as “+”.

In the case of “1504 (DNA GGGGTGGTTCCGAGCCGGACGAGCTCCAGGA; chemistry not given here) [compound 1504]”, the Validated cytotoxicity result is “+”.

On to “304 (DNA TTTGTTGGTCCGAGCCGGACGAAGGAAGGGG; chemistry not given here) [compound 304]”, for which the Validated cytotoxicity entry is “+”.

“237 (DNA CCGTATACAGGCTAGCTACAACGATGCTGGGGA; chemistry not given here) [compound 237]”: the Validated cytotoxicity entry is “+”.

On to “1991 (DNA AAAGTGCAAGGCTAGCTACAACGAGAACTGGGG; chemistry not given here) [compound 1991]”, for which the Validated cytotoxicity result was “+”.

“1800 (DNA TGCTTGAGTCCGAGCCGGACGAGCCTGAGGT; chemistry not given here) [compound 1800]”: the Validated cytotoxicity result is given as “+”.
